Measured values taken from patent US8937065B2, “Compositions and methods for modulating a kinase” (Clevexel Pharma, priority 2011, dated 2015).
Where two headings read alike, the source gives them in different places.

How the values were obtained:
[1] = system: JAK3 pathway; assay: Cell based JAK3 pathway inhibition (STAT6-bla RA1 cells, IL-4 activated); details: for IC50: STAT6-bla RA1 cells, IL-4 at EC80; for Emax: cell based JAK3 pathway inhibition, maximal inhibition, read-out: Max % Inh
Protocol: 32 μL of the cell suspension (25,000 cells) was added to each well of a 384-well TC-Treated assay plate. Cells in Assay Media were incubated for 16-24 hours in the plate at 37° C./5% CO2 in a humidified incubator. 4 μL of a 10× serial dilution of a compound of the invention was added to appropriate wells of the plate and pre-incubated at 37° C./5% CO2 in a humidified incubator with cells for 30 minutes. 4 μL of 10× control activator IL-4 at the predetermined EC80 concentration was added to wells containing the compound of the invention. The plate was incubated for 5 hours at 37° C./5% CO2 in a humidified incubator. 8 μL of 1 μM Substrate Loading Solution was added to each well and the plate was incubated for 2 hours at room temperature. The plate was read on a fluorescence plate reader.

[2] = system: Daudi cells; assay: Daudi CTG assay (Daudi proliferation, 72 hr, Cell Titer Glo); assay type: cell-based; details: Homo sapiens
Protocol: The compounds of the invention were tested on Daudi proliferation according to the procedure in Example 4 (for Daudi cells): Proliferation of RS4; 11, Ramos, Namalwa, RL, Molt-4 and Daudi cells. The compounds of the invention were tested on Daudi proliferation (72 hr), 3 fold dilution, and 9 points in duplicates. The top concentration for compounds of the invention was 10 uM; reference compound 7A top concentration was 10 uM; and Paclitaxel was 500 nM. Cell viability was determined using the Cell Titer Glo (CTG) reagent and detected by EnVision. EC50s were calculated by Prism 5.
The CellTiter-Glo™ Luminescent Cell Viability Assay uses ATP, a required co-factor of the luciferase reaction, as an indicator of metabolically active cells. The enzyme luciferase acts on luciferin in the presence of Mg^2+and ATP to produce oxyluciferin and to release energy in the form of luminescence. Since the luciferase reaction requires ATP, the luminescence produced is proportional to the amount of ATP present, an indicator of cellular metabolic activity.

[3] = target: T1, JAK3 (Homo sapiens, UniProt P52333); assay: JAK3 enzymatic activity assay (Z'-LYTE Biochemical Kinase Assay, 2 hr preincubation at 4° C.); details: cell free, 1% DMSO, read-out: JAK3 activity cell free (2 hr preincubation at (4° C.) Kj)
T1 construct: purchased Invitrogen, Madison, Wis
T1 sequence (P52333 1-1124): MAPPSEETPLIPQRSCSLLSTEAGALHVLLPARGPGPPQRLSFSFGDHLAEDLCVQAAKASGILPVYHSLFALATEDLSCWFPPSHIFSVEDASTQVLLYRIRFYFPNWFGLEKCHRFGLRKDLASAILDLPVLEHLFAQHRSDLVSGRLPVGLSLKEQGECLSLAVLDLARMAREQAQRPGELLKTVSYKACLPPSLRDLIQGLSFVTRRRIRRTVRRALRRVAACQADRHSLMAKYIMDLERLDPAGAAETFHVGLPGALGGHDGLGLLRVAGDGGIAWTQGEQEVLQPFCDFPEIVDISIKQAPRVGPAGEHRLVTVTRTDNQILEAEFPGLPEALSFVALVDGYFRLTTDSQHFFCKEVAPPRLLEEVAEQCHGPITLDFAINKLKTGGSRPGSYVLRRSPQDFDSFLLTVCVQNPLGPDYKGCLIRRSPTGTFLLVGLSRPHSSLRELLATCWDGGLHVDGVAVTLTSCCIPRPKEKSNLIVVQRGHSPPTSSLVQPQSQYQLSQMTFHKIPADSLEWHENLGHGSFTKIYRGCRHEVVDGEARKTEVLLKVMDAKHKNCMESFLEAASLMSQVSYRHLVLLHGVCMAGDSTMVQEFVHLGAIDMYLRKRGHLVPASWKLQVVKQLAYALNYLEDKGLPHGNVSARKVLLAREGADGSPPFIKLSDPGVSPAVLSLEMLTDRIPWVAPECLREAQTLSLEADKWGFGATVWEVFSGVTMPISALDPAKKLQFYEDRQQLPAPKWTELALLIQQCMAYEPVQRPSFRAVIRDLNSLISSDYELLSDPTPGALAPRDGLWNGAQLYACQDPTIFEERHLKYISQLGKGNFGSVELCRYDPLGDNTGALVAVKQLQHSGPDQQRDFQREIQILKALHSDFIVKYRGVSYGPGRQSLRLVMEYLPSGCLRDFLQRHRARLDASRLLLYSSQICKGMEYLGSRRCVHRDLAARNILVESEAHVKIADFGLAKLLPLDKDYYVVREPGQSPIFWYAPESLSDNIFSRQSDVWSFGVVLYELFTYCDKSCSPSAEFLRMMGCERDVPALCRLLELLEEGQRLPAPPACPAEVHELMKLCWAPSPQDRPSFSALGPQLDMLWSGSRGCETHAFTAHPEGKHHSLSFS
Protocol: The assays were performed according to manufacturer's protocols, except that prior to the kinase reaction they were pre-incubated for 2 hours at 4° C., in order to be able to assay for time-dependent inhibition.
In addition to the compound, each 10 μL JAK3 kinase reaction contained 0.43-1.89 ng JAK3 and 2 μM peptide substrate in 50 mM HEPES (pH 7.5), 0.01% BRIJ-35, 10 mM MgCl2 and 1 mM EGTA. The kinase reaction was allowed to proceed for 1 hour.

[4] = Daudi CTG assay, Daudi proliferation 72 hr, Cell Titer Glo, top concentration 10 uM (Paclitaxel 500 nM), read-out: IC50

IC50 [1] [µM] | IC50 [2, 4] [µM] | Compound | Emax [1] [%] | further results
> 10 |  | CN1CCN(CC(=O)Nc2cccc(-c3nc(-c4c[nH]c(C(=O)N(C)C)c4)cs3)c2)CC1 [25A] |  | 
1.1 to 10 |  | O=C(CN1CCOCC1)Nc1cccc(-c2nc(-c3c[nH]c(C(=O)NC4CC4)c3)cs2)c1 [27A] | 100 | 
0.11 to 1 |  | O=C(Nc1cccc(-c2nc(-c3c[nH]c(C(=O)N4CCCC4)c3)cs2)c1)N1CCOCC1 [28A] | 82.3 | 
1.1 to 10 | 1.1 to 10 | O=C(CN1CCOCC1)Nc1ccc(-c2nc(-c3c[nH]c(C(=O)N4CCCCC4)c3)cs2)cc1 [31A] | 76.8 | 
0.11 to 1 | 0.11 to 1 | COc1ccc(-c2nc(-c3c[nH]c(C(=O)N4CCCC4)c3)cs2)cc1NC(=O)CN1CCCCC1 [33A] | 69.8 | 
0.11 to 1 | 0.11 to 1 | CCN(CC)CC(=O)Nc1cc(-c2nc(-c3c[nH]c(C(=O)N4CCCC4)c3)cs2)ccc1OC [34A] | 79.7 | 
0.11 to 1 | 0.11 to 1 | O=C(CN1CCOCC1)Nc1cc(-c2nc(-c3c[nH]c(C(=O)N4CCCC4)c3)cs2)ccc1F [35A] | 78.9 | 
0.11 to 1 |  | O=C(c1cc(-c2csc(-c3ccccn3)n2)c[nH]1)N1CCCC1 [53A] | 72 | 
0.11 to 1 |  | O=C(c1cc(-c2csc(-c3ccc(Cl)cc3)n2)c[nH]1)N1CCCC1 [61A] | 60 | 

Further lines, the compound ahead of its results:

Compound | IC50 [1] [µM] | IC50 [2, 4] [µM] | Emax [1] [%] | further results
CN(C)CC(=O)Nc1cccc(-c2nc(-c3c[nH]c(C(=O)N4CCCC4)c3)cs2)c1 [26A] | 0.11 to 1 |  | 74.6 | 
NC(=O)c1cc(-c2csc(-c3cccc(NC(=O)CN4CCOCC4)c3)n2)c[nH]1 [29A] | > 10 | > 10 |  | 
CCN(CC)C(=O)c1cc(-c2csc(-c3cccc(NC(=O)CN4CCOCC4)c3)n2)c[nH]1 [30A] | 1.1 to 10 | 1.1 to 10 | 98.2 | 
COc1ccc(-c2nc(-c3c[nH]c(C(=O)N4CCCC4)c3)cs2)cc1NC(=O)CN1CCOCC1 [32A] | 0.11 to 1 | 0.11 to 1 | 71.7 | 
O=C(c1cc(-c2csc(Nc3cccc(C(F)(F)F)c3)n2)c[nH]1)N1CCCC1 [39A] |  |  |  | Ki [3]: 1.1 to 10 µM
O=C(c1cc(-c2csc(NC3CCCC3)n2)c[nH]1)N1CCCC1 [45A] |  |  |  | Ki [3]: 1.1 to 10 µM
O=C(c1cc(-c2csc(NCc3ccc(F)cc3)n2)c[nH]1)N1CCCC1 [47A] |  |  |  | Ki [3]: 1.1 to 10 µM
Cc1ccc(-c2nc(-c3c[nH]c(C(=O)N4CCCC4)c3)cs2)c(C)c1 [63A] | 0.11 to 1 |  | 63 | 
Cc1ccccc1-c1nc(-c2c[nH]c(C(=O)N3CCCC3)c2)cs1 [64A] |  |  |  | Ki [3]: 1.1 to 10 µM
CC(=O)O[C@H]1C(=O)[C@@]2(C)[C@H]([C@H](OC(=O)c3ccccc3)[C@]3(O)C[C@H](OC(=O)[C@H](O)[C@@H](NC(=O)c4ccccc4)c4ccccc4)C(C)=C1C3(C)C)[C@]1(OC(C)=O)CO[C@@H]1C[C@@H]2O [Paclitaxel, paclitaxel, reference compound] |  |  |  | IC50 ([2]; Daudi, read-out: Daudi CTG assay IC50, historical data): 0.00469 µM; IC50 ([2]; Daudi proliferation 72 hr, control compounds, read-out: Daudi CTG assay control IC50): 0.00449 µM
